# In patent publication US10575520B2, “Cyclohexylamine-based compounds and uses thereof” (BOARD OF SUPERVISORS OF LOUISIANA STATE UNIVERSITY AND …, priority 2016, dated 2020):
# Structures can show the parent of a compound that is named as a salt.
# Experiments:
# [1] = system: worker C. formosanus termites; assay: Dose-response feeding assay (termite mortality on treated filter paper)
# Description: Worker C. formosanus were collected from Brechtel Park, New Orleans, La. by methods known in the art. Bait crates (open-mesh plastic containers) filled with southern yellow pine or spruce-pine-fir sapwood were arranged into a lattice and buried near a C. formosanus infested tree and collected after 3 to 9 weeks. Termite-containing crates were held in 250-liter plastic garbage cans kept at room temperature (26-28 C) and 70-80% relative humidity with the original food source. Termites were collected from New Orleans on 13 Jun. 2006 (collection group A); 9 Aug. 2006 (collection group B); 1 Mar. 2008 (collection group C); 9 May 2008 (collection group D); 20 May 2008 (collection group E); 20 Mar. 2009 (collection group F); 29 May 2009 (collection group G) and 11 May 2010 (collection group H); 18 Aug. 2012 (collection group I); May 2014 (collection group J); August 2014 (collection group K). The termite collection procedure was tapping infested wood sticks into clean plastic containers where termites were collected on moistened paper towels.
# (§1) 2-phospho-myo-inositol (dicyclohexylamine salt), glycerol-3-phosphate (dicyclohexylamine salt), dicyclohexylamine phosphate, monocyclohexylamine phosphate, and neat cyclohexylamine were screened for termiticide activity as follows: test compounds were applied to 42.5 mm×3 μm filter papers, in 60×15 mm plastic Petri dishes, in a solution of 1 mg of test compound per 10 μL of distilled water. Doses of 2.5 mg (160.2 μg/mm^3 of filter paper), 5 mg (320.4 μg/mm^3) 10 mg (640.8 μg/mm^3), and 20 mg (1281.7 μg/mm^3) of 2-phospho-myo-inositol were examined. Following filter paper treatment distilled water was added to bring the total volume applied to the filter papers to 300 μL, using 300 μL of distilled water as control. Cyclohexylamine was applied to the paper diluted in amounts of 300 μL, in concentrations ranging from 0.626 to 10.2 μg/mm^3. To prevent desiccation, approximately 50 μL of distilled water was applied to filter paper throughout the trials every third day, or upon observing that a filter paper disc was relatively dry. To test whether termite mortality was induced by consumption of the cyclohexylamine-treated paper, or whether vapor presence of cyclohexylamine was responsible for the toxicity, we compared addition of cyclohexylamine to both paper and fiberglass filters—the latter of which they will not consume. In addition to pure cyclohexylamine, dicyclohexylamine phosphate and monocyclohexylamine phosphate were tested for toxicity. Dicyclohexylamine phosphate was tested in concentrations ranging from 0.348 to 348 μg/mm^3, and monocyclohexylamine phosphate was tested in concentrations ranging from 2.28 to 228 μg/mm^3. Replicates of twenty worker termites were incubated in the dark in a parafilm-sealed Petri dish at room temperature for 2 weeks. Termite mortality was recorded daily in triplicate experiments. An analysis of variance (ANOVA) (SAS ANOVA procedure) followed by Tukey's Studentized range test was used to evaluate statistical differences among groups (Institute 1989). All mortality data were judged at a=0.05.
# (§2) Termites from collection group B were used in the 2-Phospho-Myo-Inositol dose mortality assay. Termites from collection groups C and D were used in both the dicyclohexylamine-2-phophoinositol, and dicylclohexyalmine-glycerol-3-phosphate dose mortality assay. Termites from collection group I were used in cyclohexylamine dose mortality assays. Termites from collection […] in the dicyclohexylamine phosphate and neat cyclohexylamine volatility dose mortality assays. Termites from collection group K were used in the monocyclohexylamine phosphate dose mortality assay.
# [2] = system: worker termites (C. formosanus) antennae; assay: Termite antenna ablative shortening (antenna length quantification); type: in vivo, Coptotermes formosanus; settings: 640.8 μg/mm^3, 14 day assay
# Experimental: Fifty worker termites, from collection group B, were placed in a 60×15 mm polystyrene petri dish with 42.5 mm filter paper treated with 10 mg of 2-phospho-myo-inositol (640.8 μg/mm^3). Daily for 14 day three randomly selected termites were removed, euthanized with 5 μL of ethanol and their antennae were photographed, after which, GSA image analyzer was used to quantify the length of the termite antennae (Bansemer and Scheel 2010). Antenna length data were subjected to ANOVA followed by Tukey's Studentized range test (Institute 1989). All data were judged at α=0.05. All experiments were performed in triplicate.
# [3] = system: C. formosanus hindgut protozoan populations; assay: Protozoan counting, total hindgut protozoa; type: in vivo, Coptotermes formosanus; settings: 640.8 μg/mm^3, 14 day assay
# Experimental: (§3) The effect of 2-phospho-myo-inositol dicyclohexylamine salt on C. formosanus hindgut protozoan populations was examined as follows: Ten mg of 2-phospho-myo-inositol were dissolved in 200 μL of distilled water and applied to filter paper, in a 60×15 mm plastic Petri dish, (640.8 μg/mm^3). Control filter paper received 200 μL of distilled water. With 75 worker termites per dish, collection group A were used. Pseudotrichonyrnpha grassii Koidzumi, Holornastigotoides hartmanni Koidzumi and Spirotrichonympha leidyi Koidzumi were counted daily for 2 week as described in Mannesmann, R., Z. Angew. Entomol. 72: 116-128 (1972); and modified by Maiastrello, L., et al., Pest Manag. Sci. 59: 58-68 (2002). Hindguts were removed from the posterior ends of three workers and gently macerated in 40 μL saline solution containing neutral red dye (0.5 mL of 1% aqueous neutral red solution dissolved in 10 mL saline solution). The number of each protozoan species was determined using a hemocytometer (Bright-line Improved Neubauer, Hausser Scientific, Horsham, Pa.) under a light microscope. The population of each protozoan species per hindgut (XF) was calculated as: XF=(G×n)/(V×3), where G=volume (μL) of solution hindguts dissected in; n=mean of two counts within hemocytometer; V=volume (μL) of area counted. Mean (±SE) XF values calculated from two replicates were used for graphical comparison of data. […]
# [4] = system: Holornastigotoides hartmanni Koidzumi; assay: Protozoan counting, H. hartmanni; type: in vivo; settings: 640.8 μg/mm^3, 14 day assay
# Experimental: as §3
# [5] = system: Pseudotrichonyrnpha grassii Koidzumi; assay: Protozoan counting, P. grassii; type: in vivo; settings: 640.8 μg/mm^3, 14 day assay
# Experimental: as §3
# [6] = system: Spirotrichonympha leidyi Koidzumi; assay: Protozoan counting, S. leidyi; type: in vivo; settings: 640.8 μg/mm^3, 14 day assay
# Experimental: as §3
# [7] = system: worker C. formosanus termites; assay: Cellulose (filter paper) consumption; type: in vivo, Coptotermes formosanus
# Experimental: In dose mortality experiments where paper consumption data are shown, filter papers were weighed in ambient humidity prior to sugar application. After 14 days termites were removed from the dishes and the filter paper from each replicate was cleaned, washed of residual carbohydrate and dried at 100 C for 24 h. After drying and humidity equilibration for 24 h, filter papers were reweighed for determination of paper consumption. […] All consumption data were judged at a=0.05.
# [8] = system: worker C. formosanus termites; assay: Cyclohexylamine volatile effects (cellulose paper vs fiberglass filter mortality); settings: 600 μg
# Experimental: as §1, §2
smiles,measurement,setting,value
"NC1CCCCC1.O=P(O)(O)O [Monocyclohexylamine Phosphate, Monocyclohexylamine phosphate]",mortality versus control,[1]; 2.28 μg/mm^3,not significantly different from the control
same,mortality versus control,[1]; 22.8 μg/mm^3,not significantly different from the control
same,day on which mortality became significantly different,[1]; 228 μg/mm^3,10 days
same,mortality,"[1]; 228 μg/mm^3, day 10",38%
same,mortality,"[1]; 228 μg/mm^3, day 14",100%
"C1CCC(NC2CCCCC2)CC1.O=P(O)(O)O [Dicyclohexylamine Phosphate, Dicyclohexylamine phosphate]",day on which mortality became significantly higher,[1]; 0.348 μg/mm^3,three
same,mortality,"[1]; 0.348 μg/mm^3, day 14",28%
same,mortality versus control,[1]; 1.22 μg/mm^3,"The two highest dosage groups, 4.90 and 9.80 μg/mm^3, displayed mortality significantly different than the control"
same,mortality versus control,[1]; 2.45 μg/mm^3,"The two highest dosage groups, 4.90 and 9.80 μg/mm^3, displayed mortality significantly different than the control"
same,day on which mortality became significantly different,[1]; 4.90 μg/mm^3,three
same,mortality,"[1]; 4.90 μg/mm^3, day 14",38%
same,day on which mortality became significantly different,[1]; 9.8 μg/mm^3,four
same,mortality,"[1]; 9.8 μg/mm^3, day 14",36%
same,mortality versus control group,[1]; 17.22 μg/mm^3,significantly different than the control group
same,mortality versus control group,[1]; 34.44 μg/mm^3,significantly different than the control group
same,day on which mortality became significantly different,[1]; 68.88 μg/mm^3,five
same,mortality,"[1]; 68.88 μg/mm^3, day 14",45%
same,mortality,"[1]; 348 μg/mm^3, first day",100%
"O=P(O)(O)OC1[C@@H](O)[C@H](O)C(O)[C@H](O)[C@H]1O (stereo partly shown) [2-Phospho-Myo-Inositol, 2-phospho-myo-inositol (di-cyclohexylamine salt)]",mortality versus control group,"[1]; 160.2 μg/mm^3 filter paper, 14 day assay",did not result in mortality significantly different from the control group
same,mortality versus control group,"[1]; 320.4 μg/mm^3 filter paper, 14 day assay",did not result in mortality significantly different from the control group
same,mortality versus control group,"[1]; 640.8 μg/mm^3 filter paper, 14 day assay",did not result in mortality significantly different from the control group
same,day on which mortality became significant,[1]; 1281.7 μg/mm^3,eight
same,mortality,"[1]; 1281.7 μg/mm^3, day 14",98%
same,mortality,"[1]; 1281.7 μg/mm^3, day eight",Forty three
same,termite antennae length versus control,[2],significantly reduced termite antennae of day five and six and eight through 14
same,total protozoan populations versus control,[3],reduced total protozoan populations day four and thereafter
same,H. hartmanni populations versus control,[4],"significantly reduced on day one, two, five, eight, nine, 10, 11 and 14"
same,P. grassii populations versus control,[5],"significantly lowered on day one, five, eight, nine, 10 and 11"
same,S. leidyi populations versus control,[6],significantly lower than controls on day nine and 11
C1CCC(NC2CCCCC2)CC1.O=P(O)(O)OCC(O)CO [glycerol-3-phosphate (dicyclohexylamine salt)],day on which mortality became significant,"[1]; higher dosage group, 640.8 μg/mm^3",5 days
same,mortality,"[1]; higher dosage group, 640.8 μg/mm^3, day 12",98%
same,day on which mortality became significant,"[1]; lower dosage group, 320.4 μg/mm^3",12 days
same,mortality,"[1]; lower dosage group, 320.4 μg/mm^3, day 14",71%
"NC1CCCCC1 [Neat Cyclohexylamine, cyclohexylamine]",mortality versus control,[1]; 0.62 μg/mm^3,"only the highest dosage group, 2.51 μg/mm^3, displayed significantly different mortality"
same,mortality versus control,[1]; 0.82 μg/mm^3,"only the highest dosage group, 2.51 μg/mm^3, displayed significantly different mortality"
same,mortality versus control,"[1]; 1.0 μg/mm^3 (lowest dosage of 1.0, 1.7, 2.4)",Only the two highest dosage groups displayed mortality significantly different from the control
same,mortality versus control,[1]; 1.25 μg/mm^3,"only the highest dosage group, 2.51 μg/mm^3, displayed significantly different mortality"
same,day on which mortality became significant,[1]; 1.7 μg/mm^3,eight
same,mortality,"[1]; 1.7 μg/mm^3, day 14",33%
same,day on which mortality became significant,[1]; 2.4 μg/mm^3,five
same,mortality,"[1]; 2.4 μg/mm^3, day 14",41%
same,day on which mortality became significantly different,[1]; 2.51 μg/mm^3,six
same,mortality,"[1]; 2.51 μg/mm^3, day 14",63%
same,mortality,"[1]; 2.51 μg/mm^3, day six",16%
same,mortality,"[1]; 3.39 μg/mm^3, day three",100%
same,mortality,"[1]; 5.08 μg/mm^3, within one to three days",100%
same,mortality,"[1]; 10.2 μg/mm^3, day one",100%
same,consumption rate per termite versus control,"[7]; 0.626 μg/mm^3, 14 days",did not result in a consumption rate per termite significantly different from the control group
same,consumption rate (per surviving termites) versus control,"[7]; 0.822 μg/mm^3, 14 days",significantly lower than the control group
same,consumption rate (per surviving termites) versus control,"[7]; 1.253 μg/mm^3, 14 days",significantly lower than the control group
same,consumption rate (per surviving termites) versus control,"[7]; 2.510 μg/mm^3, 14 days",significantly lower than the control group
same,day on which mortality became significantly different,[8]; treatment of cellulose,eight
same,mortality,"[8]; treatment of cellulose, day 14",45%
same,mortality,"[8]; treatment of cellulose, day eight",25%
same,mortality versus corresponding control group,[8]; treatment of fiberglass,did not result in mortality significantly different than that of the corresponding control group
